Data: patent US20250333397A1 (REMIX THERAPEUTICS INC., priority 2021, published 2025)
Read-outs that look alike come from different tables or passages of the source.

How the values were obtained:
Assay type in all cases: cell-based, human
HTT mRNA = experiment: RT-qPCR splicing assay, HTT canonical (CJ) and alternative (AJ) junction mRNA; details: Homo sapiens; for AC50: read-out: HTT AJ (AC50, increase in AJ mRNA)
Method: (§1) Compounds described herein were used to modulate RNA transcript abundance in cells. The expression of a target mRNA was measured by detecting the formation of an exon-exon junction in the canonical transcript (CJ). A compound mediated exon-inclusion event was detected by observing an increase in formation of a new junction with an alternative exon (AJ). Real-time qPCR assays were used to detect these splicing switches and interrogate the potency of various compounds towards different target genes. A high-throughput real time quantitative PCR (RT-qPCR) assay was developed to measure these two isoforms of the mRNA (CJ and AJ) for exemplary genes, such as HTT, SMN2, and MYB, together with a control housekeeping gene, GAPDH or GUSB or PPIA, used for normalization. Briefly, the A673 or K562 cell line was treated with various compounds described herein (e.g., compounds of Formula (I), (II), (III), (IV)). After treatment, the levels of the HTT, MYB, or SMN2 mRNA targets were determined from each sample of cell lysate by cDNA synthesis followed by qPCR.
(§2) The A673 cell line was cultured in DMEM with 10% FBS. Cells were diluted with full growth media and plated in a 96-well plate (15,000 cells in 100ul media per well). The plate was incubated at 37° C. with 5% CO2 for 24 hours to allow cells to adhere. An 11-point 3-fold serial dilution of the compounds was made in DMSO then diluted in media in an intermediate plate. Compounds were transferred from the intermediate plate to the cell plate with the top dose at a final concentration of 10 uM in the well. Final DMSO concentration was kept at or below 0.25%. The cell plate was returned to the incubator at 37° C. with 5% CO2 for an additional 24 hours.
(§3) The K562 cell line was cultured in IMDM with 10% FBS. For K562, cells were diluted with full growth media and plated in either a 96-well plate (50,000 cells in 50 uL media per well) or a 384-well plate (8,000-40,000 cells in 45 uL media per well). An 11-point 3-fold serial dilution of the compounds were made in DMSO then diluted in media in an intermediate plate.
(§4) Compound was transferred from the intermediate plate to the cell plate with the top dose at a final concentration of 10 uM in the well. Final DMSO concentration was kept at or below 0.25%.
(§5) Final volume was 100 uL for 96-well plate and 50 uL for 384-well plate. The cell plate was then placed in an incubator at 37° C. with 5% CO2 for 24 hours.
(§6) The cells were then gently washed with 50 uL-100 uL cold PBS before proceeding to addition of lysis buffer. 30 uL-50 μL of room temperature lysis buffer with DNAse I (and optionally RNAsin) was added to each well. Cells were shaken/mixed thoroughly at room temperature for 5-10 minutes for lysis to take place and then 3 uL-5 μL of room temperature stop solution was added and wells were shaken/mixed again. After 2-5 minutes, the cell lysate plate was transferred to ice for RT-qPCR reaction setup. The lysates could also be frozen at −80° C. for later use.
(§7) In some cases, a direct lysis buffer was used. An appropriate volume of 3× lysis buffer (10 mM Tris, 150 mM NaCl, 1.5%-2.5% Igepal and 0.1-1 U/uL RNAsin, pH 7.4) was directly added to either K562 or A673 cells in media and mixed by pipetting 3 times. The plates were then incubated at room temperature with shaking/rocking for 20-50 minutes to allow for lysis to take place. After this time, the cell lysate plate was transferred to ice to set up for the RT-qPCR reactions. The lysates could also be frozen at −80° C. for later use.
(§8) To set up 10 uL RT-qPCR reactions, cell lysates were transferred to 384-well qPCR plates containing the master mix according to the table below. The plates were sealed, gently vortexed, and spun down before the run. The volumes were adjusted accordingly in some instances where the reaction was carried in 20 μL. The table below summarizes the components of the RT-qPCR reactions: […]

MYB mRNA = experiment: RT-qPCR splicing assay, MYB canonical (CJ) and alternative (AJ) junction mRNA; details: for AC50: read-out: MYB AJ (AC50, increase in AJ mRNA)
Method: as §1, §2, §3, §4, §5, §6, §7, §8

Target C mRNA = experiment: RT-qPCR splicing assay panel, Target C canonical junction (CJ) mRNA; details: Homo sapiens
Method: as §1, §2, §3, §4, §5, §6, §7, §8

SMN2 mRNA = experiment: RT-qPCR splicing assay panel, SMN2 canonical junction (CJ) mRNA; details: Homo sapiens
Method: as §1, §2, §3, §4, §5, §6, §7, §8

[1] = 24 h, Table 3A, A673 or K562 cells, 24 h treatment
[2] = 24 h, Table 3A, A673 or K562 cells, 24 h treatment, read-out: HTT CJ (IC50, decrease in CJ mRNA)
[3] = canonical junction (CJ) mRNA, RT-qPCR panel, Table 4A, read-out: HTT, decrease in CJ mRNA levels, IC50
[4] = Homo sapiens, 24 h, Table 3A, A673 or K562 cells, 24 h treatment, read-out: MYB CJ (IC50, decrease in CJ mRNA)
[5] = Homo sapiens, canonical junction (CJ) mRNA, RT-qPCR panel, Table 4A, read-out: MYB, decrease in CJ mRNA levels, IC50
[6] = canonical junction (CJ) mRNA, RT-qPCR panel, Table 4A, read-out: Target C, decrease in CJ mRNA levels, IC50
[7] = canonical junction (CJ) mRNA, RT-qPCR panel, Table 4A, read-out: SMN2, decrease in CJ mRNA levels, IC50
[8] = Homo sapiens, 24 h, Table 3A, A673 or K562 cells, 24 h treatment
[9] = 24 h, Table 3B, A673 or K562 cells, 24 h treatment
[10] = 24 h, Table 3B, A673 or K562 cells, 24 h treatment, read-out: HTT CJ (IC50, decrease in CJ mRNA)
[11] = Table 4B, gene panel, read-out: HTT (IC50, decrease in CJ mRNA levels)
[12] = Homo sapiens, 24 h, Table 3B, A673 or K562 cells, 24 h treatment
[13] = Homo sapiens, 24 h, Table 3B, A673 or K562 cells, 24 h treatment, read-out: MYB CJ (IC50, decrease in CJ mRNA)
[14] = Homo sapiens, Table 4B, gene panel, read-out: MYB (IC50, decrease in CJ mRNA levels)
[15] = Table 4B, gene panel, read-out: Target C (IC50, decrease in CJ mRNA levels)
[16] = Table 4B, gene panel, read-out: SMN2 (IC50, decrease in CJ mRNA levels)

SMILES	AC50 (HTT mRNA; [1])	IC50 (HTT mRNA; [2])	IC50 (HTT mRNA; [3])	IC50 (MYB mRNA; [4])	IC50 (MYB mRNA; [5])	AC50 (MYB mRNA; Table 3A, A673 or K562 cells, 24 h treatment)	IC50 (Target C mRNA; [6])	IC50 (SMN2 mRNA; [7])	AC50 (MYB mRNA; [8])	AC50 (HTT mRNA; [9])	IC50 (HTT mRNA; [10])	IC50 (HTT mRNA; [11])	AC50 (MYB mRNA; [12])	IC50 (MYB mRNA; [13])	IC50 (MYB mRNA; [14])	IC50 (Target C mRNA; [15])	IC50 (SMN2 mRNA; [16])
CN([C@@H]1CCN(c2ccc(-c3ccc(-c4cn[nH]c4)cc3O)nn2)C1)C(C)(C)C [Compound 406, 2-{6-[(3R)-3-[tert-butyl(methyl)amino]pyrrolidin-1-yl]pyridazin-3-yl}-5-(1H-pyrazol-4-yl)phenol]	0.1 to 1 µM	0.1 to 1 µM	0.1 to 1 µM	0.1 to 1 µM	0.1 to 1 µM	1 to 10 µM	0.1 to 1 µM	0.1 to 1 µM	–	–	–	–	–	–	–	–	–
CCN(C1CCC1)[C@H]1CCN(c2ccc(-c3ccc(-c4cnnc(OC)c4)cc3O)nn2)C1 [Compound 276]	0.1 to 1 µM	< 0.1 µM	< 0.1 µM	0.1 to 1 µM	0.1 to 1 µM	–	0.1 to 1 µM	< 0.1 µM	0.1 to 1 µM	–	–	–	–	–	–	–	–
COc1cc(-c2cc(O)c(-c3ccc(N4CC[C@@H](NC(C)(C)C)C4)nn3)cc2F)ncn1 [Compound 396]	1 to 10 µM	0.1 to 1 µM	0.1 to 1 µM	1 to 10 µM	1 to 10 µM	–	1 to 10 µM	< 0.1 µM	1 to 10 µM	–	–	–	–	–	–	–	–
Cn1cc2cc(-c3ccc(N4CCC(NC(C)(C)C)C4)nn3)c(O)cc2n1 (stereo not drawn) [Compound 801]	–	–	–	–	–	–	–	–	–	1 to 10 µM	1 to 10 µM	1 to 10 µM	1 to 10 µM	1 to 10 µM	1 to 10 µM	1 to 10 µM	0.1 to 1 µM
COc1cc(-c2ccc(-c3ccc(N4CCC(NC(C)(C)C)C4=O)nn3)c(O)c2)cnn1 (stereo not drawn) [Compound 219, 3-(tert-butylamino)-1-{6-[2-hydroxy-4-(6-methoxypyridazin-4-yl)phenyl]pyridazin-3-yl}pyrrolidin-2-one]	1 to 10 µM	1 to 10 µM	1 to 10 µM	1 to 10 µM	1 to 10 µM	–	1 to 10 µM	1 to 10 µM	1 to 10 µM	–	–	–	–	–	–	–	–
Cc1ncc(-c2cc(O)c(-c3ccc(N4CC[C@H](N[C@H](C)C5CC5)C4)nn3)cc2F)s1 [Compound 372]	< 0.1 µM	< 0.1 µM	< 0.1 µM	< 0.1 µM	< 0.1 µM	–	< 0.1 µM	< 0.1 µM	< 0.1 µM	–	–	–	–	–	–	–	–
Cc1ncc(-c2cc(O)c(-c3ccc(N4CCC(NC5CCCCC5)C4)nn3)cc2F)s1 (stereo not drawn) [Compound 410]	< 0.1 µM	< 0.1 µM	< 0.1 µM	1 to 10 µM	1 to 10 µM	–	0.1 to 1 µM	< 0.1 µM	0.1 to 1 µM	–	–	–	–	–	–	–	–
Cc1cn2cc(-c3ccc(-c4ccc(N5CCC(NC6CCC6)C5)nn4)c(O)c3)ncc2n1 (stereo not drawn) [Compound 327]	0.1 to 1 µM	0.1 to 1 µM	0.1 to 1 µM	1 to 10 µM	1 to 10 µM	–	1 to 10 µM	< 0.1 µM	0.1 to 1 µM	–	–	–	–	–	–	–	–
Cc1ncc(-c2ccc(-c3ccc(N4CCC(NC5CCC5)C4)nn3)c(O)c2)o1 (stereo not drawn) [Compound 347, 2-{6-[3-(cyclobutylamino)pyrrolidin-1-yl]pyridazin-3-yl}-5-(2-methyl-1,3-oxazol-5-yl)phenol]	0.1 to 1 µM	0.1 to 1 µM	0.1 to 1 µM	0.1 to 1 µM	0.1 to 1 µM	–	0.1 to 1 µM	< 0.1 µM	0.1 to 1 µM	–	–	–	–	–	–	–	–
CC1(NC2CCN(c3ccc(-c4cc(F)c(-c5cn[nH]c5)cc4O)nn3)C2)CC1 (stereo not drawn) [Compound 111, 4-fluoro-2-(6-{3-[(1-methylcyclopropyl)amino]pyrrolidin-1-yl}pyridazin-3-yl)-5-(1H-pyrazol-4-yl)phenol]	< 0.1 µM	< 0.1 µM	< 0.1 µM	< 0.1 µM	< 0.1 µM	–	< 0.1 µM	< 0.1 µM	< 0.1 µM	–	–	–	–	–	–	–	–
CC(C)(C)NC1CCN(c2ccc(-c3cc4oc(CC#N)nc4cc3O)nn2)C1 (stereo not drawn) [Compound 820]	–	–	–	–	–	–	–	–	–	0.1 to 1 µM	0.1 to 1 µM	0.1 to 1 µM	0.1 to 1 µM	1 to 10 µM	1 to 10 µM	1 to 10 µM	< 0.1 µM
COc1cc(-c2cc(O)c(-c3ccc(N4CC[C@@H](NC5CCC5)C4)nn3)cc2F)cnn1 [Compound 230, 2-{6-[(3R)-3-(cyclobutylamino)pyrrolidin-1-yl]pyridazin-3-yl}-4-fluoro-5-(6-methoxypyridazin-4-yl)phenol]	0.1 to 1 µM	0.1 to 1 µM	0.1 to 1 µM	1 to 10 µM	1 to 10 µM	–	1 to 10 µM	< 0.1 µM	1 to 10 µM	–	–	–	–	–	–	–	–
